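Five compound concentrations were applied to cells in 96-well plates for 48 hours; endpoints were derived by simple linear interpolation of the resulting dose-response curve. GI50 marks 50% less growth. TGI denotes the concentration required for complete inhibition of growth.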
Experiments:
Assay in all cases: NCI-60 cell line screen, 48 h
786-0 renal = system: 786-0 renal
A498 renal = system: A498 renal
A549 NSCLC = system: A549 NSCLC
ACHN renal = system: ACHN renal
BT-549 breast = system: BT-549 breast
CAKI-1 renal = system: CAKI-1 renal
CCRF-CEM leukemia = system: CCRF-CEM leukemia
COLO 205 colon = system: COLO 205 colon
DU-145 prostate = system: DU-145 prostate
EKVX NSCLC = system: EKVX NSCLC
HCC-2998 colon = system: HCC-2998 colon
HCT-116 colon = system: HCT-116 colon
HCT-15 colon = system: HCT-15 colon
HL-60(TB) leukemia = system: HL-60(TB) leukemia
HOP-62 NSCLC = system: HOP-62 NSCLC
HOP-92 NSCLC = system: HOP-92 NSCLC
HS 578T breast = system: HS 578T breast
IGROV1 ovarian = system: IGROV1 ovarian
KM12 colon = system: KM12 colon
LOX IMVI melanoma = system: LOX IMVI melanoma
M14 melanoma = system: M14 melanoma
MALME-3M melanoma = system: MALME-3M melanoma
MCF7 breast = system: MCF7 breast
MDA-MB-231 breast = system: MDA-MB-231 breast
MDA-MB-435 = system: MDA-MB-435
MDA-MB-468 breast = system: MDA-MB-468 breast
MOLT-4 leukemia = system: MOLT-4 leukemia
NCI-H226 lung = system: NCI-H226 lung
NCI-H23 lung = system: NCI-H23 lung
NCI-H460 lung = system: NCI-H460 lung
NCI-H522 lung = system: NCI-H522 lung
NCI/ADR-RES ovarian = system: NCI/ADR-RES ovarian
OVCAR-3 ovarian = system: OVCAR-3 ovarian
OVCAR-5 ovarian = system: OVCAR-5 ovarian
PC-3 prostate = system: PC-3 prostate
RPMI-8226 leukemia = system: RPMI-8226 leukemia
RXF 393 renal = system: RXF 393 renal
SF-268 CNS = system: SF-268 CNS
SF-295 CNS = system: SF-295 CNS
SF-539 CNS = system: SF-539 CNS
SK-MEL-2 melanoma = system: SK-MEL-2 melanoma
SK-MEL-28 melanoma = system: SK-MEL-28 melanoma
SK-MEL-5 melanoma = system: SK-MEL-5 melanoma
SK-OV-3 ovarian = system: SK-OV-3 ovarian
SN12C renal = system: SN12C renal
SNB-19 CNS = system: SNB-19 CNS
SNB-75 CNS = system: SNB-75 CNS
SW-620 colon = system: SW-620 colon
T-47D breast = system: T-47D breast
TK-10 renal = system: TK-10 renal
U251 CNS = system: U251 CNS
UACC-257 melanoma = system: UACC-257 melanoma
UACC-62 melanoma = system: UACC-62 melanoma
UO-31 renal = system: UO-31 renal

Cc1ccc(C2CC(c3ccc(S(=O)(=O)NCCNc4nc(Nc5ccc(F)cc5)nc(N(C)C)n4)cc3)=Nc3c(N)nc(N)nc3N2)cc1 (stereo not drawn)
GI50 (786-0 renal): 7.06 µM
TGI (786-0 renal): > 100 µM
GI50 (A498 renal): > 100 µM
TGI (A498 renal): > 100 µM
GI50 (A549 NSCLC): > 100 µM
TGI (A549 NSCLC): > 100 µM
GI50 (ACHN renal): > 100 µM
TGI (ACHN renal): > 100 µM
GI50 (BT-549 breast): 5.46 µM
TGI (BT-549 breast): 59.4 µM
GI50 (CAKI-1 renal): 8.06 µM
TGI (CAKI-1 renal): > 100 µM
GI50 (CCRF-CEM leukemia): 2810 nM
TGI (CCRF-CEM leukemia): > 100 µM
GI50 (COLO 205 colon): 11.5 µM
TGI (COLO 205 colon): > 100 µM
GI50 (DU-145 prostate): > 100 µM
TGI (DU-145 prostate): > 100 µM
GI50 (EKVX NSCLC): 5.84 µM
TGI (EKVX NSCLC): > 100 µM
GI50 (HCC-2998 colon): 2930 nM
TGI (HCC-2998 colon): 41.1 µM
GI50 (HCT-116 colon): 3.81 µM
TGI (HCT-116 colon): > 100 µM
GI50 (HCT-15 colon): 4.95 µM
TGI (HCT-15 colon): > 100 µM
GI50 (HL-60(TB) leukemia): 2940 nM
TGI (HL-60(TB) leukemia): 20.2 µM
GI50 (HOP-62 NSCLC): > 100 µM
TGI (HOP-62 NSCLC): > 100 µM
GI50 (HOP-92 NSCLC): 2540 nM
TGI (HOP-92 NSCLC): 21 µM
GI50 (HS 578T breast): 19.4 µM
TGI (HS 578T breast): > 100 µM
GI50 (IGROV1 ovarian): 64.4 µM
TGI (IGROV1 ovarian): > 100 µM
GI50 (KM12 colon): 4.56 µM
TGI (KM12 colon): > 100 µM
GI50 (LOX IMVI melanoma): 2090 nM
TGI (LOX IMVI melanoma): 5.11 µM
GI50 (M14 melanoma): 4.56 µM
TGI (M14 melanoma): > 100 µM
GI50 (MALME-3M melanoma): 4.65 µM
TGI (MALME-3M melanoma): 33.2 µM
GI50 (MCF7 breast): 3.08 µM
TGI (MCF7 breast): > 100 µM
GI50 (MDA-MB-231 breast): 3.86 µM
TGI (MDA-MB-231 breast): > 100 µM
GI50 (MDA-MB-435): 8.79 µM
TGI (MDA-MB-435): > 100 µM
GI50 (MDA-MB-468 breast): 2720 nM
TGI (MDA-MB-468 breast): 8.52 µM
GI50 (MOLT-4 leukemia): 2200 nM
TGI (MOLT-4 leukemia): 7.53 µM
GI50 (NCI-H226 lung): > 100 µM
TGI (NCI-H226 lung): > 100 µM
GI50 (NCI-H23 lung): 78.8 µM
TGI (NCI-H23 lung): > 100 µM
GI50 (NCI-H460 lung): 4.76 µM
TGI (NCI-H460 lung): > 100 µM
GI50 (NCI-H522 lung): 21.3 µM
TGI (NCI-H522 lung): > 100 µM
GI50 (NCI/ADR-RES ovarian): > 100 µM
TGI (NCI/ADR-RES ovarian): > 100 µM
GI50 (OVCAR-3 ovarian): 9.93 µM
TGI (OVCAR-3 ovarian): > 100 µM
GI50 (OVCAR-5 ovarian): > 100 µM
TGI (OVCAR-5 ovarian): > 100 µM
GI50 (PC-3 prostate): 3.33 µM
TGI (PC-3 prostate): > 100 µM
GI50 (RPMI-8226 leukemia): 2940 nM
TGI (RPMI-8226 leukemia): > 100 µM
GI50 (RXF 393 renal): 2270 nM
TGI (RXF 393 renal): 9.12 µM
GI50 (SF-268 CNS): 7.53 µM
TGI (SF-268 CNS): > 100 µM
GI50 (SF-295 CNS): 6.6 µM
TGI (SF-295 CNS): > 100 µM
GI50 (SF-539 CNS): 3.29 µM
TGI (SF-539 CNS): 78.9 µM
GI50 (SK-MEL-2 melanoma): 11.2 µM
TGI (SK-MEL-2 melanoma): 77.7 µM
GI50 (SK-MEL-28 melanoma): 26.9 µM
TGI (SK-MEL-28 melanoma): > 100 µM
GI50 (SK-MEL-5 melanoma): 4.98 µM
TGI (SK-MEL-5 melanoma): 20.6 µM
GI50 (SK-OV-3 ovarian): > 100 µM
TGI (SK-OV-3 ovarian): > 100 µM
GI50 (SN12C renal): > 100 µM
TGI (SN12C renal): > 100 µM
GI50 (SNB-19 CNS): 13.1 µM
TGI (SNB-19 CNS): > 100 µM
GI50 (SNB-75 CNS): > 100 µM
TGI (SNB-75 CNS): > 100 µM
GI50 (SW-620 colon): 8.04 µM
TGI (SW-620 colon): > 100 µM
GI50 (T-47D breast): 8.75 µM
TGI (T-47D breast): > 100 µM
GI50 (TK-10 renal): > 100 µM
TGI (TK-10 renal): > 100 µM
GI50 (U251 CNS): 7.08 µM
TGI (U251 CNS): > 100 µM
GI50 (UACC-257 melanoma): 26 µM
TGI (UACC-257 melanoma): > 100 µM
GI50 (UACC-62 melanoma): 20.9 µM
TGI (UACC-62 melanoma): > 100 µM
GI50 (UO-31 renal): > 100 µM
TGI (UO-31 renal): > 100 µM
